Assay results published in patent publication US4482722A, “Ester of metronidazole with N,N-dimethylglycine and acid addition salt thereof” (A/S Dumex (Dumex Ltd.), priority 1982, dated 1984).
Several values for one entry are separate records, joined by “and”; a condition that tells them apart may be missing. Equal values may be shown once. Where a name gives a salt, the structure may show the parent alone. Read-outs that look alike come from different tables or passages of the source. Values belong to the compound of their own block, whether it stands above or below them.

What was measured:
[1] = Hydrolysis to metronidazole in human plasma (in vitro); type: in vitro ADME
[2] = Hydrolysis to metronidazole in 0.05M phosphate buffer pH 7.4; type: physicochemical; details: pH 7.4, 37° C, read-out: t1/2 in buffer
[3] = after parenteral administration; cited from earlier work
[4] = cited from earlier work
[5] = compound itself (uncleaved ester); cited from earlier work
[6] = Intravenous cross-over study in two beagle dogs, plasma concentrations of ester, metronidazole and metabolites; type: in vivo
Text: (§1) To test the assumption that the N,N-dimethylglycine ester would be a suitable water-soluble prodrug of metronidazole for parenteral administration, metronidazole and its N,N-dimethylglycine ester were given intravenously to two beagle dogs in a cross-over study.

[7] = Solubility in water / aqueous solution; type: physicochemical
[8] = Local tolerance after intravenous injection in dogs; type: in vivo, beagle dogs
Text: as §1

[9] = pH of aqueous solutions of the hydrochloride; type: physicochemical; details: 1-20% w/v aqueous solutions
[10] = Initial rate of formation of metronidazole and time to begin precipitation, calculated at 23° C (Table 2); type: physicochemical
Method: Since t10% for the ester is 73 h at 23° C., the results given in Table 2 indicate that the stability of aqueous solutions of the prodrug ester will only be limited by the potential precipitation of metronidazole formed upon hydrolysis in those cases where the concentration of the ester in aqueous solutions exceeds about 20%.

[11] = Effect of temperature on rate of hydrolysis in acetate buffer pH 4.4 (Arrhenius plot); type: physicochemical
Method: The effect of temperature on the rate of hydrolysis of metronidazole N,N-dimethylglycinate was studied in 0.05M acetate buffer of pH 4.4 over the temperature range 23°-50° C.
The results obtained are illustrated in FIG. 1 of the drawings. […] Based on the slope of said plot an activation energy of 17.7 kcal mole^-1 was calculated. Based on said Arrhenius type plot the stability of aqueous solutions of the ester may be predicted at various temperatures.

[12] = Hydrolysis in 80% dog plasma in vitro; type: in vitro ADME; details: 80% plasma, 37° C
Text: As noted below the rapid and quantitative formation of metronidazole seen after administration of the ester indicate, however, that the rate of ester disappearance is solely or predominantly due to the hydrolytic conversion.

[13] = compared with metronidazole at the same dosage level; cited from earlier work
[14] = published data; cited from earlier work
[15] = 80% plasma, 80% human plasma, pH 7.4, 37° C, read-out: t1/2 in human plasma

half-life [1, 15]: 3.45 h
half-life [2]: 5.25 h
SMILES: Cc1ncc([N+](=O)[O-])n1CCOC(=O)CCN

half-life [1, 15]: 0.767 h
half-life [2]: 0.867 h
SMILES: Cc1ncc([N+](=O)[O-])n1CCOC(=O)CCN(C)C

half-life [1, 15]: 5.57 h
half-life [2]: 9.67 h
SMILES: Cc1ncc([N+](=O)[O-])n1CCOC(=O)CCCN(C)C

SMILES: Cc1ncc([N+](=O)[O-])n1CCOC(=O)CCC(=O)O
cleavage of the ester in blood serum (in words) [3]: very slow
solubility in water (in words) ([4]; prior art esters): has the required solubility in water
microbiological activity (in words) [5]: microbiologically inactive

SMILES: Cc1ncc([N+](=O)[O-])n1CC(=O)O [2-Methyl-5-nitroimidazole-1-aceticacid]
plasma concentration of metabolite (in words) ([6]; dogs, i.v. ester hydrochloride (30 mg/kg metronidazole equivalents) or metronidazole (10 mg/kg)): could not be detected in measurable concentrations

half-life [1, 15]: 8.72 h
half-life [2]: 28.7 h
SMILES: Cc1ncc([N+](=O)[O-])n1CCOC(=O)CN1CCN(C)CC1 [4-Methyl-1-piperazinoacetate]

half-life [1, 15]: 0.683 h
half-life [2]: 1.92 h
SMILES: Cc1ncc([N+](=O)[O-])n1CCOC(=O)CN [Glycinate]

SMILES: Cc1ncc([N+](=O)[O-])n1CCOC(=O)CN(C)C [Metronidazole N,N-dimethylglycinate hydrochloride]
solubility ([7]; water, 20° C, read-out: solubility in water): > 500000 µg/mL and > 1.7e+06 µM
conversion to metronidazole (in words) ([6]; i.v., dogs): rapidly and completely converted to metronidazole
signs of pain or local toxicity [8]: No signs of pain or local toxicity
pH of the 1-20% w/v solutions [9]: 4.4-4.6
(d[M]/dt)i, apparent zero-order initial rate of formation of metronidazole ([10]; 50 mg ml^-1 hydrochloride): 0.042 mg/mL/h
tpt, time for metronidazole to begin precipitation ([10]; 50 mg ml^-1 hydrochloride): 238 h
(d[M]/dt)i, apparent zero-order initial rate of formation of metronidazole ([10]; 100 mg ml^-1 hydrochloride): 0.084 mg/mL/h
tpt, time for metronidazole to begin precipitation ([10]; 100 mg ml^-1 hydrochloride): 119 h
(d[M]/dt)i, apparent zero-order initial rate of formation of metronidazole ([10]; 200 mg ml^-1 hydrochloride): 0.168 mg/mL/h
tpt, time for metronidazole to begin precipitation ([10]; 200 mg ml^-1 hydrochloride): 60 h
(d[M]/dt)i, apparent zero-order initial rate of formation of metronidazole ([10]; 300 mg ml^-1 hydrochloride): 0.252 mg/mL/h
tpt, time for metronidazole to begin precipitation ([10]; 300 mg ml^-1 hydrochloride): 40 h

half-life [1, 15]: 0.133 h
half-life [2]: 1.5 h
SMILES: CCCNCC(=O)OCCn1c([N+](=O)[O-])cnc1C [N--Propylglycinate]

SMILES: Cc1ncc([N+](=O)[O-])n1CCOC(=O)CN(C)C [metronidazole N,N-dimethylglycinate]
half-life of disappearance of the ester in dogs ([6]; i.v. hydrochloride, 30 mg/kg metronidazole equivalents, one value per dog, 30 mg/kg): approximately 3 min and ~7 min
hydrolysis in the dogs (in words) ([6]; i.v., 30 mg/kg metronidazole equivalents): hydrolyzed rapidly
pattern of metabolite formation (in words) ([6]; i.v., dogs, compared with injection of metronidazole): quite similar to that observed after injection of metronidazole
activation energy of hydrolysis ([11]; 0.05M acetate buffer pH 4.4, 23°-50° C, Arrhenius plot): 74.1 kJ/mol
t10% (time in which 10% of the ester is degraded) ([11]; pH 4.4, 4° C): 576 h
t10% (time in which 10% of the ester is degraded) ([11]; pH 4.4, 15° C): 166 h
t10% (time in which 10% of the ester is degraded) ([11]; pH 4.4, 23° C): 73 h
half-life [1, 15]: 0.2 h
half-life ([1]; human plasma or blood, in vitro, read-out: half-life of hydrolysis in human plasma or blood): 0.15 to 0.2 h
half-life [2]: 4.17 h
half-life [12]: 0.417 h

solubility ([7]; aqueous solution, pH>3, 25° C, read-out: solubility in aqueous solutions): 10000 µg/mL and 58000 µM
SMILES: Cc1ncc([N+](=O)[O-])n1CCO [metronidazole]
solubility in an aqueous solution ([4]; background statement): about 100 mg/10 ml
solubility augmented by solubilizers ([4]; with gentisic acid (1:4) or with co-solvents (prior art)): 500-650 mg/10 ml

SMILES: Cc1ncc([N+](=O)[O-])n1CCOP(=O)(O)O [phosphate ester]
bioavailability of metronidazole to rats (in words) [13]: significantly lower than that obtained with metronidazole at the same dosage level
rate of conversion to metronidazole in vivo (in words) [14]: rather slow rate of conversion to metronidazole in vivo
